What was measured:
[1] = Table Lamp Light Exposure Test (TLE), discoloration; assay type: physicochemical; details: gel with glycerol 10%, clay 4%, silver 0.054% weight; for Gel color after continuous light exposure: After 24 h: 60 W table lamp; for Gel color after continuous light exposure: Fresh: 60 W table lamp at 1 to 1.5 feet
Description: (a) Table Lamp Light Exposure Test (TLE) • The samples of the said compositions contained in either glass vials or 15 ml PP tubes (BD Falcon) were placed under a table lamp (turned on) at a distance of 12 to 15 inches for continuous exposure. The incandescent lamp wattage was 60 W. After the desired duration of exposure, the test samples were examined for visible discoloration by holding it against a white plain paper. Non-hydrogel samples were examined against the control samples protected from light.

rats = details: cited from earlier work
[2] = Steam sterilization (thermal stability, discoloration); assay type: physicochemical; details: hydrogel
Description: (b) Steam Sterilization • One steam sterilization cycle was imposed on gel prototypes to evaluate their ability to withstand elevated temperatures. The gel samples contained in 15 ml or 50 ml PP tubes or other non-hydrogel prototypes (in sealed foil pouches) were examined post sterilization for any adverse temperature effect on its color, viscosity, texture, phase separation etc.
A majority of the hydrogel prototypes of the present disclosure were tested for their ability to withstand elevated temperatures simply by subjecting them to one steam sterilization cycle. The test samples experienced temperature rises from 20 C to 122 C over 15 min, followed by constant temperature of 122 C for 15 min and finally a cool down from 122 C to ˜40 C over 3 h. Thus, the test samples experienced nearly 3.5 h of hostile temperature condition.
“Steam sterilizable” or “heat stable” or “inert to heat” is defined as having no visible sign of discoloration (color change following exposure that will add shade of black, brown, yellow or purple) after one steam sterilization cycle (122 C for 15 min) that includes periods of warming up and final cool down to room temperature (<40 C).

[3] = theor. silver content 110 ppm, ratio of cyanurate/silver ions 5
[4] = theor. silver content 220 ppm, ratio of cyanurate/silver ions 2.5

Compound	Gel color after continuous light exposure: After 24 h [1]	Gel color after continuous light exposure: Fresh [1]	other results
O=C([O-])c1ccccc1.[Ag+] [Silver Benzoate]	Brown black		
O=C([O-])C(O)C(O)C(=O)O.[Ag+] (centres unmarked) [Silver Mono-tartrate]	Brown black	Hazy gel	
CCC(=O)[O-].[Ag+] [Silver Propionate]	Brown black		
O=C([O-])CO.[Ag+] [Silver Glycolate]	Brown grey		
O=C(O)c1ccccc1 [benzoic acid]			LD50 (rats): 2530 mg/kg of body weight
Silver Sorbate	Brown black		
O=c1[nH]c(=O)[nH]c(=O)[nH]1 [cyanuric acid]			LD50 (rats): 7700 mg/kg of body weight; lethal dose LD50 (rats; internet source): 7.70 g/kg of body weight
C=C(CC(=O)[O-])C(=O)[O-].[Ag+].[Ag+] [Silver Itaconate]	Brown black		
O=C([O-])/C=C\C(=O)O.[Ag+] [Silver Mono-maleate]	Brown yellow	Smooth hazy gel	
O=C1[N-]S(=O)(=O)c2ccccc21.[Ag+] [Silver Saccharinate]		Yellow brown	
O=c1[n-]c(=O)[nH]c(=O)[nH]1.O=c1[n-]c(=O)[nH]c(=O)[nH]1.[Ag+].[Na+] [Na[Ag(C3N3O3H2)2], Sodium silver cyanurate ligand complex Na[Ag(C3N3H2O3)2] or its hydrate]			Color after steam sterilization [2, 3]: No discoloration; Color before steam sterilization [2, 3]: Hazy to clear; Color after steam sterilization [2, 4]: No discoloration; Color before steam sterilization [2, 4]: Hazy to clear
Silver Gluconate	Brown black		
Silver Benzene sulfonate	Brown black	Brown after 0.5 h	
